# Assay results published in ChEMBL document CHEMBL1201862, “PubChem BioAssay data set” (2004).
# Calls of active or inactive are those of the source.
# Tests used:
# [1] = target: E3 ubiquitin-protein ligase XIAP (Homo sapiens, UniProt P98170); test: Counter Screen using XIAP-Bir3 for Chemical Antagonists of Bir1/2 domains of IAP-family anti-apoptotic proteins. [Related pubchem assays (depositor defined):AID1018, AID1449, AID1514, AID1638, AID1749, AID1750, AID488957, AID488963]
# [2] = target: DNA damage-inducible transcript 3 protein (Mus musculus, UniProt P35639); type: functional, Cricetulus griseus
# [3] = target: T1, Tyrosine-protein phosphatase non-receptor type 7 (Homo sapiens, UniProt P35236); test: SAR analysis of chemical inhibitors of HePTP using a Fluorescent assay - Set 2. [Related pubchem assays (depositor defined):AID1059, AID1077, AID1661, AID2085, AID521]; type: functional
# T1 sequence (P35236 whole entry): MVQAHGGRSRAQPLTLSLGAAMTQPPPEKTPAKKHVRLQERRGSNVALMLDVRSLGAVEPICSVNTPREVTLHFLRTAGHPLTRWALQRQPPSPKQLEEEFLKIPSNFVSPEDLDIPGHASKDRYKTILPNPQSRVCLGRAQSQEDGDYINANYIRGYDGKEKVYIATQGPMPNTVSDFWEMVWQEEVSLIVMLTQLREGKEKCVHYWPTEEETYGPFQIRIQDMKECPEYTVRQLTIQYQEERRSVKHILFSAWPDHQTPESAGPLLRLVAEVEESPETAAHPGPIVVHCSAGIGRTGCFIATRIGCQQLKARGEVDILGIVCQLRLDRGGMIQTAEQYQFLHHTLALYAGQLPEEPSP
# BJ = test: BJ-TERT-LT-ST fibroblast viability loss – cell-based, RAS-independent, luminescence, dose response (AID 1935); type: functional; settings: Homo sapiens;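 also: BJ fibroblasts immortalized with TERT plus LT and ST oncogenes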
# [4] = target: T2, Histone-lysine N-methyltransferase NSD2 (Homo sapiens, UniProt O96028); type: biochemical
# T2 sequence (O96028 whole entry): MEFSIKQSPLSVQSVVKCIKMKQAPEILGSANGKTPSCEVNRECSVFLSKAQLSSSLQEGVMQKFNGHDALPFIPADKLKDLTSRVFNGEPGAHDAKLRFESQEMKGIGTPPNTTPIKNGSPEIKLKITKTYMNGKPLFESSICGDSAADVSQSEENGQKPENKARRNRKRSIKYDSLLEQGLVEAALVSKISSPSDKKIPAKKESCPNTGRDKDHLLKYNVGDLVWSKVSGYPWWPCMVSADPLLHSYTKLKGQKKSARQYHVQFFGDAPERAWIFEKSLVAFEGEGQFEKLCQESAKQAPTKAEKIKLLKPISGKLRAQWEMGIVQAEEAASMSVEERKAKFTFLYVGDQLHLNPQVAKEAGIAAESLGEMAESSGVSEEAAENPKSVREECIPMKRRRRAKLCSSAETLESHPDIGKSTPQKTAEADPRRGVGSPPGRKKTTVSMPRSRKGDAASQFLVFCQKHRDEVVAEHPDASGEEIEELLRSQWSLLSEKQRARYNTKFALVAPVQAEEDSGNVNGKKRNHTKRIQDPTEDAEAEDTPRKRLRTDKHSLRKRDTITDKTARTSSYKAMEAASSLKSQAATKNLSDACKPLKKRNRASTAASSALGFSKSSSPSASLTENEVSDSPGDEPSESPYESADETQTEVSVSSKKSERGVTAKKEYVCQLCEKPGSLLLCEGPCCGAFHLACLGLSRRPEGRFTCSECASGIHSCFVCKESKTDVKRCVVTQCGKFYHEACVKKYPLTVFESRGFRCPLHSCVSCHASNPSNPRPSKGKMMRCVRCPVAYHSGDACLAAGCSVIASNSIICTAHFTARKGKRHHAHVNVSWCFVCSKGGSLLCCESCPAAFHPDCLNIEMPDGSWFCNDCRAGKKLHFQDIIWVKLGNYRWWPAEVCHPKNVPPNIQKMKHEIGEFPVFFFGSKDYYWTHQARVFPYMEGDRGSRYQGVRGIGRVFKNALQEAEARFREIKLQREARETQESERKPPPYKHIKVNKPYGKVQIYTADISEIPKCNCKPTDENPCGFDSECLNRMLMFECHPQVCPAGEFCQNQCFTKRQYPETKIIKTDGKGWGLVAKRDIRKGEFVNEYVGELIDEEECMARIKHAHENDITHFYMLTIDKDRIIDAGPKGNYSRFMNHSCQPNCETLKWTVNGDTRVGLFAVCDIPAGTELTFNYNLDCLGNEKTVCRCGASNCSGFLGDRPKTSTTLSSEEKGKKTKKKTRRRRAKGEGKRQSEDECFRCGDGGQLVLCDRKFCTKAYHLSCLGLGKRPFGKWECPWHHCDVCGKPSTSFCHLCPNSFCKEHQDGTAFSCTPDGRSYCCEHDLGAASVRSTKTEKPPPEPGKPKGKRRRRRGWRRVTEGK
# [5] = Luminescence-based dose response cell-based high throughput screening assay for cytotoxic compounds using the IEC-6 intestinal epithelial cell line. [Related pubchem assays: 1858 (Summary AID.), 1825 (Counterscreen.), 1907 (Confirmation screen.)]; type: functional
# [6] = target: Sphingosine 1-phosphate receptor 1 (Homo sapiens, UniProt P21453); type: functional;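 also: Tango beta-arrestin reporter U2OS cells stimulated with S1P near its EC80; inhibitor potency meaning antagonism of receptor activation by the natural agonist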
# Nonstructural protein 1 = Nonstructural protein 1 (Influenza A virus, UniProt Q194T2); type: functional, Influenza A virus (A/California/07/2009(H1N1))
# [7] = decrease of insulin promoter-GFP reporter – imaging, high-content screening, mouse beta cells (AID 1628); type: functional; settings: MIN6
# [8] = Luminescence Cell-Based Dose Response HTS to Identify Inhibitors of 5'UTR Stem-Loop Driven Prion Protein mRNA Translation in H4 Neuroglioblastoma Cells. [Related pubchem assays: 1827 (Project Summary), 1813 (Primary HTS)]; type: functional
# Beta-galactosidase = Beta-galactosidase (Escherichia coli, UniProt Q8VNN2); test: detection-enzyme interference by beta-gal modulators – biochemical, E. coli enzyme, set 3, artefact control for CCR6 antagonist project, dose response (AID 504712); type: functional
# [9] = target: Intestinal-type alkaline phosphatase (Mus musculus, UniProt P24822); test: mouse intestinal alkaline phosphatase activators, dose response, biochemical, luminescence, uHTS hits (AID 488783); type: functional
# Intestinal-type alkaline phosphatase, sequence (P24822 whole entry): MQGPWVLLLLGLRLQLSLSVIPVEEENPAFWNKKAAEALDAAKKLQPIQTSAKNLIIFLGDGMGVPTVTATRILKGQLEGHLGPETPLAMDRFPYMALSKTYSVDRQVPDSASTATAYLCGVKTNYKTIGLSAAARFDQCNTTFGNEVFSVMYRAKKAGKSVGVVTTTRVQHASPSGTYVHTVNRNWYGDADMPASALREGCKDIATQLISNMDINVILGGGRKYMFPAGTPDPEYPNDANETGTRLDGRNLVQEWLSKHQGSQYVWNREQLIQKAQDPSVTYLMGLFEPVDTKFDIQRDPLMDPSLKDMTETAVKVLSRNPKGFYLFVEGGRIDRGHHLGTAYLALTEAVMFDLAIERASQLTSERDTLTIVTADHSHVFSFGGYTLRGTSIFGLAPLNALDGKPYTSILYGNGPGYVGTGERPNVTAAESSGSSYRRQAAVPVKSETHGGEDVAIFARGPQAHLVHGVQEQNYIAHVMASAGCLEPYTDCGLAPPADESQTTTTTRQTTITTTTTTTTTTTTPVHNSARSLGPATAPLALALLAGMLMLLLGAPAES
# Beta-galactosidase, sequence (Q8VNN2 whole entry): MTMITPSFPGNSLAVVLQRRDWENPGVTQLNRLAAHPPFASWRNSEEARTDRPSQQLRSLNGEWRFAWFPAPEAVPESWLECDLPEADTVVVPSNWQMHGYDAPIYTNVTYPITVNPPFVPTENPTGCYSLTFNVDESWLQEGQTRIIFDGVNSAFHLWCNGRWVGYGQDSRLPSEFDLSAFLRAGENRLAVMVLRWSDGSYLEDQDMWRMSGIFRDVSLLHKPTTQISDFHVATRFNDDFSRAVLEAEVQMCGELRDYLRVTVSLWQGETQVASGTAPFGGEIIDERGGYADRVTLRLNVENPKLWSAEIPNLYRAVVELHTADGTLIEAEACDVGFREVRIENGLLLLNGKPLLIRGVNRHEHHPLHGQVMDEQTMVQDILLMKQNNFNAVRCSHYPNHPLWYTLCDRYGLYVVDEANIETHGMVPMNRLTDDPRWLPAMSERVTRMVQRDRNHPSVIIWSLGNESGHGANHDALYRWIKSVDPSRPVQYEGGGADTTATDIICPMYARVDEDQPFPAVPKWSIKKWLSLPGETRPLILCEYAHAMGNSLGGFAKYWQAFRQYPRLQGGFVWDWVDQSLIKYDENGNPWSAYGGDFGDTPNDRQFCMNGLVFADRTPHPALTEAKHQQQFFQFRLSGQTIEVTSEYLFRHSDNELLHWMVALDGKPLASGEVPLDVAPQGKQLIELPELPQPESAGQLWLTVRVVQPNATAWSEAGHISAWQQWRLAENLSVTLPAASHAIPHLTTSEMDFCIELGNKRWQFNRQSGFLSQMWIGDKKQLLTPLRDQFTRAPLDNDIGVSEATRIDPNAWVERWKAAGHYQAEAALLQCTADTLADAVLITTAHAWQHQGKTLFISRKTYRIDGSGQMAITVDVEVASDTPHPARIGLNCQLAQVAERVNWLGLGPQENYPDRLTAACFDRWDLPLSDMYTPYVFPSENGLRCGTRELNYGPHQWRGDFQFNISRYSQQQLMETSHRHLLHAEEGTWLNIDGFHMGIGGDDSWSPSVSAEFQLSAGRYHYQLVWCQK
# Sphingosine 1-phosphate receptor 1, sequence (P21453 whole entry): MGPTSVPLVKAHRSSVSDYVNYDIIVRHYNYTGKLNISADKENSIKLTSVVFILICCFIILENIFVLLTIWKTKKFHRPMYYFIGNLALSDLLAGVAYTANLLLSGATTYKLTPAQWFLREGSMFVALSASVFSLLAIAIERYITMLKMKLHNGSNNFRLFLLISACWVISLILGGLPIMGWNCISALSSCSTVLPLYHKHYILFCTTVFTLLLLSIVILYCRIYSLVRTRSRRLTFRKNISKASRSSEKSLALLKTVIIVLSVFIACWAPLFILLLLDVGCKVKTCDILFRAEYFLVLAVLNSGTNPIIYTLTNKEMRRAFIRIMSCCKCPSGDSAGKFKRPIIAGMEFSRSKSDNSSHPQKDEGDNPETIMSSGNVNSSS
# Nonstructural protein 1, sequence (Q194T2 whole entry): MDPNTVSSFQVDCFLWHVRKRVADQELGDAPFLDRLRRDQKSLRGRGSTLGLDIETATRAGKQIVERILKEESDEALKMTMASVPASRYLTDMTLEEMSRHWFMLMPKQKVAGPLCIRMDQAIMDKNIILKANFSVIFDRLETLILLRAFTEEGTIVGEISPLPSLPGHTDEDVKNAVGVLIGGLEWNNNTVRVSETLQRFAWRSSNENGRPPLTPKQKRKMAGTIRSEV
# E3 ubiquitin-protein ligase XIAP, sequence (P98170 whole entry): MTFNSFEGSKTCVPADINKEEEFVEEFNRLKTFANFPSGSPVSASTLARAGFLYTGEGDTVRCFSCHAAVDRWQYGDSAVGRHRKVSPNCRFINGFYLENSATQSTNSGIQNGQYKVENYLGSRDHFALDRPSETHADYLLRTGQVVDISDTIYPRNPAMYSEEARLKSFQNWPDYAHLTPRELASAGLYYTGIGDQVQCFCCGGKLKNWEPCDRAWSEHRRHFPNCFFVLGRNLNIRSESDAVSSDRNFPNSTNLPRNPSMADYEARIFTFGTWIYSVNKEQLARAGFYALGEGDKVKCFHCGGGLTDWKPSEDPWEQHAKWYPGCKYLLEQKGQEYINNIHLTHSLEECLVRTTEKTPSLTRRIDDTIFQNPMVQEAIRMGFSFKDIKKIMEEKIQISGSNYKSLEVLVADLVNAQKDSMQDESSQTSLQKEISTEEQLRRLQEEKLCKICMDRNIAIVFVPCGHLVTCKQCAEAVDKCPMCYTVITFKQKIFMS
# DNA damage-inducible transcript 3 protein, sequence (P35639 whole entry): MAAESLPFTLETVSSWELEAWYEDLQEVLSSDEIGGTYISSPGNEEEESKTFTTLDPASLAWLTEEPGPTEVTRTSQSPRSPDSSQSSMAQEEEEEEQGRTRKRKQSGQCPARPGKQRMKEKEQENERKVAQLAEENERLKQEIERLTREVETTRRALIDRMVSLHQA
smiles,measurement,setting,value
CCc1nnc(NS(=O)(=O)c2ccc(NC(=S)NC(=O)/C=C/c3ccc(C(C)C)cc3)cc2)s1,IC50,[1],> 20 µM (inactive)
same,Absolute IC50 (CHOP),[2],10 µM
same,IC50,[3],5.99 µM (active)
O=C(/C=C/c1ccco1)Nc1ccc(Oc2ccccc2)cc1,EC50,BJ,> 150 µM (inconclusive)
COc1ccc(S(=O)(=O)Nc2cc(SCC(=O)O)c(O)c3ccccc23)cc1,AC50,[4],3.56 µM (active)
O=C1C(Nc2ccc(O)cc2)=C/C(=N/S(=O)(=O)c2cccs2)c2ccccc21,IC50,[5],0.428 µM (active)
same,IC50,[6],4.23 µM (active)
same,IC50,Nonstructural protein 1,17.9 µM (active)
same,IC50,[7],0.975 µM (active)
same,EC50,[8],0.236 µM (active)
same,IC50,Beta-galactosidase,> 66.6 µM (inactive)
CC1CC(=O)c2c(cc3c(-c4c(O)cc(O)c5c(O)c6c(cc45)OC(C)CC6=O)c(O)cc(O)c3c2O)O1 (configuration not stated) [CEPHALOCHROMIN],EC50,[9],19.1 µM (active)
